Experimental data as given in patent EP1437348A1, “6-methyl-2,4-diamino-pyrimidine derivatives, process for preparation, compositions containing them and their uses as basic neutralising agents” (L'OREAL, priority 2003, dated 2004).
Converted amounts (≈) assume the structure as drawn. Like-named read-outs stand apart in the source and are kept apart here.

Experiments:
[1] = Ionisation constants by potentiometric titration; format: physicochemical; conditions: read-out: pKa expérimental
Experimental: Les constantes d'ionisation sont déterminées expérimentalement par titrage potentiométrique suivant les conditions opératoires décrites ci-dessous et évaluées par le logiciel de prédiction ACD/pK DB, Version 5.12.
Conditions opératoires du titrage potentiométrique • Matériel utilisé : (Radiometer-Tacussel) : • titrateur TIM 900 • passeur d'échantillons SAC 90 • logiciel Tim Talk 9 • - Prise d'essai : 10^-4 mole • - Mise en solution : (solubilisation avec passeur d'échantillons) • 5 ml du mélange DMSO 70 / Ethanol 10 / Eau 20 (agitation 3 minutes avec barbotage d'azote) • 10 ml d'une solution de NaCl 0.225M dans eau 80 / DMSO 20 (agitation 3 minutes avec barbotage d'azote) • - Méthode de titrage : • Etalonnage de l'électrode entre pH4 et pH10 • Titrage direct par NaOH 1N ou après ajout d'HCl 1N • Détection d'inflexion avec ajout continu du titrant • vitesse d'addition mini : 1%/min • vitesse d'addition maxi : 1%/min • Flux d'azote à la surface de la solution pendant le titrage • - Calculs : • 2 fonctions polynomiales sont utilisées pour obtenir le pKa dans l'eau en milieu NaCl 0.15M : • pour les fonctions acides : pKaH2O = -0,0208(pKasolvant)^2 + 1,257pKasolvant - 1,6 • pour les fonctions basiques :pKaH2O = -0,0208(pKasolvant)^2 + 1,257pKasolvant - 0,75

Escherichia coli [2] = assay: Minimal inhibitory concentration (CMI), Alamar Blue broth method; format: cell-based; conditions: ATCC8739, ATCC #8739, lowest concentration with growth inhibition ≥ 90%, 16 h contact at 37°C, read-out: CMI E.coli
Description: (§1) La méthode de détermination de l'activité anti-microbienne des composés selon l'invention fait intervenir la mesure de la Concentration Minimale Inhibitrice (CMI) vis-à-vis de 2 bactéries gram- (E. coli et P. aeruginosa), d'une bactérie gram+ (S. aureus) et d'une levure (C. albicans). Cette méthode a été effectuée selon la méthode décrite dans les articles suivants: - Baker C.N., Banerjee S.N. and Tenover F.C. : Evaluation of Alamar colorimetric MIC Method for antimicrobial susceptibility testing of gram-negative bacteria. J. Clin. Microbiol. (1994), 32, 1261-1267; - Baker C.N. and Tenover F.C. : Evaluation of Alamar colorimetric broth microdilution susceptibility testing method for staphylococci and enterococci. J. Clin. Microbiol. (1996), 34, 2654-2659. Les souches bactériennes utilisées au départ sous forme de disques lyophilisés calibrés sont réhydratées en suivant les indications du fournisseur (Fisher Scientific S.A.)
(§2) Les souches sont ensemencées dans du milieu Trypto-caseine-soja. La mise en contact du composé à tester solubilisé dans l'eau, avec les souches en phase de croissance s'effectue en milieu liquide. Après 16 heures de contact du composé avec les bactéries (37°C), de l'Alamar Blue est ajouté comme indicateur métabolique de la viabilité de cellules variées et de bactéries. La réduction de l'indication est proportionnelle à l'activité métabolique des bactéries. A l'issue de l'incubation d'une durée de 2h (sauf pour C. albicans pour laquelle l'incubation est de 4h), l'activité métabolique des bactéries est évaluée par une lecture en absorbance ou en fluorescence. En fluorescence, les lectures sont réalisées à 544nm (Excitation) et à 590nm (Emission). Les composés les plus actifs sont sélectionnés et un effet dose (8 concentrations) est ensuite réalisé comme précédemment. La Concentration Minimale Inhibitrice (C.M.I.) a alors été déterminée comme étant la concentration la plus faible du composé testé pour laquelle était observée une inhibition de croissance de la bactérie ou de la levure ≥ 90%.

Candida albicans [3] = assay: as above; format: cell-based; conditions: ATCC10231, ATCC #10231, lowest concentration with growth inhibition ≥ 90%, 16 h contact at 37°C
Description: as §1, §2

Pseudomonas aeruginosa [4] = assay: as above; format: cell-based; conditions: ATCC9027, ATCC #9027, lowest concentration with growth inhibition ≥ 90%, 16 h contact at 37°C, read-out: CMI P.aeruginosa
Description: as §1, §2

Staphylococcus aureus = assay: as above; format: cell-based; conditions: ATCC6538, ATCC #6538, lowest concentration with growth inhibition ≥ 90%, 16 h contact at 37°C, read-out: CMI S.aureus
Description: as §1, §2

Enterococcus faecalis = assay: Challenge test (artificial contamination) in cosmetic supports; format: cell-based; conditions: inoculum about 10^6 germes/gramme, sensitivity threshold 200 UFC
Description: (§3) La mesure de la Concentration Minimale Inhibitrice (C.M.I.) développée ci-dessus ne peut être utilisée avec fiabilité pour les moisissures; or les moisissures peuvent également poser de graves problèmes dans la conservation des produits cosmétiques. En sachant que l'activité d'un composé diminue lorsqu'il est introduit dans une formule et que la méthode de la CMI se fait après dilution du composé dans l'eau, l'efficacité anti-microbienne des composés de formule (I) a été évaluée par la méthode du Challenge Test ou contamination artificielle après avoir introduit lesdits composés dans des supports cosmétiques (lotion, émulsions huile-dans-eau et eau-dans-huile). La méthode du challenge-test consiste en une contamination artificielle de l'échantillon par des souches microbiennes de collection (bactéries, levures et moisissures) et en une évaluation du nombre de micro-organismes revivifiables sept jours après l'inoculation. Afin de mettre en évidence l'effet d'un composé de formule (I), l'activité anti-microbienne d'une formule cosmétique contenant 0.25% de 4 methyl-pipéridine-1-yl-pyrimidine-2-ylamine a été comparée avec la même formule seule, après inoculation d'environ 10^6 germes/gramme de produit cosmétique.

Aspergillus niger = assay: as above; format: cell-based; conditions: inoculum about 10^6 germes/gramme, sensitivity threshold 200 UFC
Description: as §3

Escherichia coli [5] = assay: as above; format: cell-based; conditions: inoculum about 10^6 germes/gramme, sensitivity threshold 200 UFC
Description: as §3

Candida albicans [6] = assay: as above; format: cell-based; conditions: inoculum about 10^6 germes/gramme, sensitivity threshold 200 UFC
Description: as §3

Pseudomonas aeruginosa [7] = assay: as above; format: cell-based; conditions: inoculum about 10^6 germes/gramme, sensitivity threshold 200 UFC
Description: as §3

[8] = water, nacl 0.15m, dans l'eau, NaCl 0,15M, reference molecules entered in the database used for the prediction
[9] = function NH^+/N (pyrimidine motif), pKa in water, NaCl 0.15M, obtained from the solvent pKa by a polynomial function
[10] = Emulsion démaquillante huile dans eau + 0.25% compound
[11] = Emulsion eau dans huile + 0.250% compound

MIC (Escherichia coli [2]) | MIC (Candida albicans [3]) | MIC (Pseudomonas aeruginosa [4]) | MIC (Staphylococcus aureus) | SMILES | further results
> 10000 µg/mL | > 10000 µg/mL | > 10000 µg/mL | 626 µg/mL (≈ 3.06 mM) | Cc1cc(NCc2ccco2)nc(N)n1 [Comparatif (DE 3717480), reference compound] | –
1250 µg/mL (≈ 5.65 mM) | 5000 µg/mL (≈ 22.6 mM) | 250 µg/mL (≈ 1.13 mM) | 2500 µg/mL (≈ 11.3 mM) | Cc1cc(NCC2CCNCC2)nc(N)n1 [Composé B, 4-N-[4-piperidinylmethyl]-6-methyl-pyrimidine-2,4-diamine] | –
5000 µg/mL (≈ 24.1 mM) | 2500 µg/mL (≈ 12.1 mM) | 5000 µg/mL (≈ 24.1 mM) | 2500 µg/mL (≈ 12.1 mM) | Cc1cc(NC[C@@H]2CCCN2)nc(N)n1 [Composé C] | –
625 µg/mL (≈ 2.3 mM) | 1250 µg/mL (≈ 4.59 mM) | 5000 µg/mL (≈ 18.4 mM) | 1250 µg/mL (≈ 4.59 mM) | Cc1cc(N2CCc3cc(O)c(O)cc3C2)nc(N)n1 [Composé E, 2-(2-amino-6-methyl-pyrimidin-4-yl)-1,2,3,4-tetrahydro-isoquinoline-6,7-diol] | –
2500 µg/mL (≈ 12.8 mM) | 2500 µg/mL (≈ 12.8 mM) | 2500 µg/mL (≈ 12.8 mM) | 5000 µg/mL (≈ 25.6 mM) | Cc1cc(NCC(C)(C)N)nc(N)n1 [Composé G, N4-(2-amino-2-methyl-propyl)-6-methyl-pyrimidine-2,4-diamine] | –
2500 µg/mL (≈ 10.6 mM) | 2500 µg/mL (≈ 10.6 mM) | 5000 µg/mL (≈ 21.2 mM) | 1250 µg/mL (≈ 5.29 mM) | Cc1cc(NCCN2CCNCC2)nc(N)n1 [Composé H, 4-N-(2-piperazin-1-yl-ethyl)-6-methyl-pyrimidine – 2,4-diamine] | –
1250 µg/mL (≈ 5.73 mM) | 625 µg/mL (≈ 2.86 mM) | 2500 µg/mL (≈ 11.5 mM) | 625 µg/mL (≈ 2.86 mM) | Cc1cc(NCc2ccc(C)o2)nc(N)n1 [Composé I, 4-N-(5-methyl-furan-2-ylmethyl)---6-methyl-pyrimidine – 2,4-diamine] | –
2500 µg/mL (≈ 10 mM) | 1250 µg/mL (≈ 5.01 mM) | 2500 µg/mL (≈ 10 mM) | 2500 µg/mL (≈ 10 mM) | Cc1cc(NCC2CCCC(CN)C2)nc(N)n1 (stereo not drawn) [Composé L, 4-N-(3-aminomethyl-cyclohexylmethyl)-6-methyl-pyrimidine-2,4-diamine] | –
5000 µg/mL (≈ 26 mM) | 625 µg/mL (≈ 3.25 mM) | 5000 µg/mL (≈ 26 mM) | 5000 µg/mL (≈ 26 mM) | Cc1cc(N2CCCCC2)nc(N)n1 [Composé M, 4-methyl-6-pipéridine-1-yl-pyrimidine-2-ylamine] | pKa [1, 9]: 8.35; Nombre d'UFC / gramme de produit après 7 jours de contact germes / produit (Enterococcus faecalis; [10]): <200 UFC / gramme de produit; Nombre d'UFC / gramme de produit après 7 jours de contact germes / produit (Enterococcus faecalis; Lotion + 0.25% compound): 400 UFC / gramme de produit; Nombre d'UFC / gramme de produit après 7 jours de contact germes / produit (Aspergillus niger; [11]): 400 UFC / gramme de produit; Nombre d'UFC / gramme de produit après 7 jours de contact germes / produit (Aspergillus niger; Lotion + 0.25% compound): 400 UFC / gramme de produit; Nombre d'UFC / gramme de produit après 7 jours de contact germes / produit (Escherichia coli [5]; [10]): <200^2 UFC / gramme de produit; Nombre d'UFC / gramme de produit après 7 jours de contact germes / produit (Escherichia coli [5]; [11]): <200^2 UFC / gramme de produit; Nombre d'UFC / gramme de produit après 7 jours de contact germes / produit (Escherichia coli [5]; Lotion + 0.25% compound): <200^2 UFC / gramme de produit; Nombre d'UFC / gramme de produit après 7 jours de contact germes / produit (Candida albicans [6]; [10]): <200 UFC / gramme de produit; Nombre d'UFC / gramme de produit après 7 jours de contact germes / produit (Candida albicans [6]; [11]): <200 UFC / gramme de produit; Nombre d'UFC / gramme de produit après 7 jours de contact germes / produit (Candida albicans [6]; Lotion + 0.25% compound): <200 UFC / gramme de produit; Nombre d'UFC / gramme de produit après 7 jours de contact germes / produit (Pseudomonas aeruginosa [7]; [10]): <200 UFC / gramme de produit; Nombre d'UFC / gramme de produit après 7 jours de contact germes / produit (Pseudomonas aeruginosa [7]; [11]): <200 UFC / gramme de produit; Nombre d'UFC / gramme de produit après 7 jours de contact germes / produit (Pseudomonas aeruginosa [7]; Lotion + 0.25% compound): <200 UFC / gramme de produit
310 µg/mL (≈ 1.49 mM) | 160 µg/mL (≈ 0.768 mM) | 2500 µg/mL (≈ 12 mM) | 630 µg/mL (≈ 3.02 mM) | CCCCCCNc1cc(C)nc(N)n1 [Composé N, 4-N-Hexyl-6-methyl-pyrimidine-2,4-diamine] | pKa [1, 9]: 8.35
> 5000 µg/mL | 1250 µg/mL (≈ 5.43 mM) | > 5000 µg/mL | > 5000 µg/mL | COc1cccc(Nc2cc(C)nc(N)n2)c1 [reference compound] | –

Second part, the compound before the results:

SMILES | MIC (Escherichia coli [2]) | MIC (Candida albicans [3]) | MIC (Pseudomonas aeruginosa [4]) | MIC (Staphylococcus aureus) | further results
Nc1ncccn1 [2-aminopyrimidine, reference compound] | – | – | – | – | pKa [1, 8]: 3.9
Nc1ccncn1 [4-aminopyrimidine, reference compound] | – | – | – | – | pKa [1, 8]: 6
Nc1nc(N2CCCCC2)cc(C(F)(F)F)n1 [Comparatif (DE 19917784), reference compound] | > 5000 µg/mL | > 5000 µg/mL | > 5000 µg/mL | > 5000 µg/mL | –
CO[Si](C)(C)CCCCNc1cc(C)nc(N)n1 [Composé A, 4-N-[4-(méthoxy-dimethylsilyl)-butyl]-6-methyl-pyrimidine - 2,4-diamine] | 78 µg/mL (≈ 0.291 mM) | 156 µg/mL (≈ 0.581 mM) | 156 µg/mL (≈ 0.581 mM) | 78 µg/mL (≈ 0.291 mM) | –
Cc1cc(N2CCCN(CCCN3CCCC3)CC2)nc(N)n1 [Composé D, 4-methyl-6-[4-(3-pyrrolidin-1-yl-propyl)-[1,4]diazepan-1-yl]-pyrimidin-2-ylamine] | 5000 µg/mL (≈ 15.7 mM) | – | > 5000 µg/mL | 5000 µg/mL (≈ 15.7 mM) | –
Cc1cc(N2CCN(CCN(C)C)CC2)nc(N)n1 [Composé F, 4-[4-(2-dimethylamino-ethyl)-piperazin-1-yl]-6-methyl-pyrimidin-2-ylamine] | 2500 µg/mL (≈ 9.46 mM) | 5000 µg/mL (≈ 18.9 mM) | > 5000 µg/mL | 5000 µg/mL (≈ 18.9 mM) | –
Cc1cc(N2CCN(C3CCN(C)CC3)CC2)nc(N)n1 [Composé J, 4-methyl-6-[4-(1-methyl-piperidin-4-yl)-piperazin-1-yl]-pyrimidin-2-ylamine] | 2500 µg/mL (≈ 8.61 mM) | 5000 µg/mL (≈ 17.2 mM) | > 5000 µg/mL | 5000 µg/mL (≈ 17.2 mM) | –
Cc1cc(N2CCN(c3ncccn3)CC2)nc(N)n1 [Composé K, 4-methyl-6-(4-pyrimidin-2-yl-piperazin-1-yl)-pyrimidin-2-ylamine] | 2500 µg/mL (≈ 9.21 mM) | 625 µg/mL (≈ 2.3 mM) | > 5000 µg/mL | 5000 µg/mL (≈ 18.4 mM) | –
